Measurements taken from the METLIN SMRT retention time set (Domingo-Almenara et al. 2019).

Assay: gradient 5% acetonitrile 3 min, to 50% in 2 min, to 85% in 15 min, held 3 min, 100 µL/min
Conditions: column: Zorbax Extend-C18 2.1 x 50 mm; eluents: water / acetonitrile, 0.1% formic acid
Method in brief: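 The system's dead and dwell volumes were 40 μL and 900 μL, with a Zorbax Extend-C18 column (2.1 × 50 mm, 1.8 μm) run at 100 μL/min in water and acetonitrile containing 0.1% formic acid each. Pure standards were analyzed in mixtures of ~100 molecules by HPLC–quadrupole time-of-flight mass spectrometry in positive and negative ionization mode. Retention time was assigned from computationally picked, manually inspected adduct peaks.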

| RP-LC retention time [s] | Structure (SMILES) |
| --- | --- |
| 1160 | CCc1nc2cc(-c3noc(Cc4ccc(C)cc4)n3)ccc2o1 |
| 790 | CSc1cccc(NC(=O)Cn2c(C)cc(-c3nnc(C)o3)c2C)c1 |
| 729 | COC(=O)N(C)c1c(N)nc(-c2nn(Cc3ccccc3F)c3ncccc23)nc1N |
| 633 | Cc1ccc(CNC(=O)C2Cn3cccc3C(=O)N2)o1 (stereo not drawn) |
| 729 | Cc1cc2c(=O)n(CC(=O)NCc3ccccc3Cl)c3cccnc3n2n1 |
| 733 | COc1ccc(CNC(=O)C2CCN(S(=O)(=O)c3cn(C(C)C)cn3)CC2)cc1 |
| 848 | CCOc1ccccc1NC(=O)CN1CCN(Cc2ccc(C)cc2)C(=O)C1=O |
| 832 | O=C(N[C@H]1C[C@@H]2C[C@H]1CN2C(=O)Cc1ccc(OC(F)(F)F)cc1)c1cccs1 |
| 847 | CCCCS(=O)(=O)c1cc2c(cc1NC(=O)Cc1ccc(F)cc1)n(C)c(=O)n2C |
| 1130 | O=C(NCc1cccc(Br)c1)C1CCCN(c2nccnc2Sc2ccccc2)C1 (stereo not drawn) |
| 641 | Cc1ccc(C(=O)N2CCCCC2c2nc(-c3cccnc3)no2)cn1 (stereo not drawn) |
| 871 | CCc1ccc(CNC(=O)C2CCCN(c3ccc(=O)n(-c4ccc(OC)cc4)n3)C2)cc1 (stereo not drawn) |
| 729 | COc1ccccc1CC(=O)N1C[C@@H]2C[C@H]1C[C@@H]2NC(=O)c1ccccc1 |
| 928 | COc1ccc(-c2cc(C(=O)Nc3ccccc3F)nn2C2CCS(=O)(=O)C2)cc1 (stereo not drawn) |
| 805 | Cc1cc2nn(CC(=O)Nc3ccc(C)c(F)c3)c(=O)n2c(N2CCCC2)n1 |
| 933 | CN(C(=O)c1cc2c(=O)oc3ccccc3c2n1C)c1cccc(Cl)c1 |
| 664 | COc1ccc(Cl)cc1S(=O)(=O)N1CC(c2nc(-c3ccncc3)nn2C)C1 |
| 573 | CCN(CC)CCNC(=O)CCC(=O)N1CCc2c(c(C(=O)N3CCCCC3)nn2C)C1 |
| 668 | CN1C(=O)CCc2cc(NC(=O)C3CCC3)ccc21 |
| 824 | O=C(c1ccc(Cl)cc1)N1CCC2(CC1)N=C(c1ccccc1)NO2 |
| 736 | CCc1ccc(S(=O)(=O)N2CCN(C3CCN(CCC(C)C)C3=O)CC2)cc1 (stereo not drawn) |
| 960 | CCOC(=O)Cc1csc2nc(-c3ccccc3)nn12 |

| RP-LC retention time [s] | Structure (SMILES) |
| --- | --- |
| 1350 | CCOC(=O)c1cnc(N2CCN(c3ccccc3F)CC2)c2ccccc12 |
| 872 | COc1ccccc1-c1nc(Cn2nnc(-c3nc(-c4ccncc4)no3)c2C)c(C)o1 |
| 574 | O=C(NC1CC1)c1nc(-c2ccncc2)cs1 |
| 1070 | Cc1ccc(-n2c(N3CCCC(C(=O)Nc4ccc(C)c(F)c4)C3)nc3ccsc3c2=O)cc1 (stereo not drawn) |
| 971 | O=C(NCc1c(F)cccc1F)C(=O)Nc1ccccc1Cl |
| 958 | O=C(C1=CN(c2ccc(Oc3ccccc3)cc2)c2cc(F)ccc2S1(=O)=O)N1CCOCC1 |
| 706 | Cc1cccc(NC(=O)C2CCN(c3nnc4cccc(C)n34)CC2)c1 |
| 896 | Cc1ccccc1CNC(=O)C1CCCN(C(=O)c2[nH]c(C)c(C(=O)OC(C)C)c2C)C1 (stereo not drawn) |
| 964 | Cc1ccc(CNS(=O)(=O)c2cc(-c3cc(C(F)(F)F)[nH]n3)sc2C)o1 |
| 675 | Cc1ccc(NC(=O)Cn2nc3nc(N4CCOCC4)ccn3c2=O)cc1F |
| 849 | COCCCNC(=O)CN1C(=O)CC(c2ccc(Br)s2)=Nc2ccccc21 |
| 621 | CC(=O)Nc1ccc(-n2c(C)nc3ccccc3c2=O)cc1C |
| 720 | CC(C)NC[C@H](O)COc1cccc2ccccc12 |
| 813 | CN1C(=O)c2cccnc2Sc2cc(NC(=O)COc3ccccc3)ccc21 |
| 599 | Cc1cc(C)n(-c2ccnc(N3CCC(C(=O)NCc4ccncc4)CC3)n2)n1 |
| 613 | O=C(Nc1ccccc1C(=O)NCCCN1CCCC1)C1=CSCCO1 |
| 555 | CN1CCN(CCNC(=O)C2CCN(c3nc4cccnc4s3)CC2)CC1 |
| 595 | O=C(Nc1ccccc1Br)N1CCN(CCn2cnc3cccnc32)CC1 |
| 1140 | Cc1ccc(-c2nc3cnccn3c2Nc2ccc(C)cc2Br)cc1 |
| 711 | CC(C)(C)c1ccc(C(=O)N2CCN(c3nc(CN4CCOCC4)cs3)CC2)cc1 |
| 1120 | COc1ccc(NS(=O)(=O)c2cc(-c3cc(C(F)(F)F)on3)sc2C)cc1 |
| 936 | CCOC(=O)C1CCCN(c2nc(-c3ccc(Cl)cc3)nc3ccccc23)C1 (stereo not drawn) |

| RP-LC retention time [s] | Structure (SMILES) |
| --- | --- |
| 673 | O=C(c1ccncc1)N1CCCCC1c1nc(-c2ccc(F)cc2)no1 (stereo not drawn) |
| 1170 | CCOC(=O)c1cc(C2CC2)nc2c1c(=O)n(Cc1ccc(OC)cc1)c(=O)n2C |
| 968 | O=C(NCc1ccccc1Cl)C(=O)c1cn(CC(=O)N2CCCC2)c2ccccc12 |
| 776 | Cc1ccc(NC(=O)N2CCC(n3c(-c4ccco4)nc4cccnc43)C2)cc1 (stereo not drawn) |
| 572 | O=C(NCCn1nc(-n2ccnc2)ccc1=O)c1cc(-c2ccccc2)on1 |
| 590 | CCCN1CCN(C(=O)CN2C(=O)CCCc3cc(S(=O)(=O)N4CCOCC4)ccc32)CC1 |
| 1060 | COc1ccc(-c2nnc(-c3cccnc3NCc3ccc(OC)c(OC)c3)o2)cc1 |
| 596 | Fc1cnccc1CN1CCC(N2CC3(CCCCC3)C2c2ccccc2)CC1 (stereo not drawn) |
| 947 | Cc1nc2cccnc2n1C1CCN(C(=O)Nc2cccc(F)c2)CC1 |
| 1240 | O=C(NC1CC1)c1ccc(CN2CCN(Cc3ccccc3)C(=O)C2=O)cc1 |
| 787 | O=C(NCc1ccc(OC(F)(F)F)cc1)C1c2c(F)cccc2C(=O)N1CCc1ccccn1 (stereo not drawn) |
| 819 | O=C1CC(C(=O)N2CCN(c3ccccc3)CC2)CN1CCc1c[nH]c2ccc(F)cc12 (stereo not drawn) |
| 797 | COc1ccccc1CNc1c(-c2nc(C(C)C)no2)cnc2nc(C)ccc12 |
| 696 | CCc1ccc(S(=O)(=O)Nc2ccc(-c3cn4ccc(C)nc4n3)cc2)cc1 |
| 823 | Cc1oc(-c2ccc(NC(=O)c3ccsc3)cc2)nc1Cn1cccn1 |
| 801 | O=C(CC1CCCC1)Nc1ccc(N2CCN(C3CCCC3)C2=O)nc1 |
| 876 | COc1cccc(-c2noc(Cn3ccn(-c4ccc(Cl)cc4)c(=O)c3=O)n2)c1 |
| 1280 | Cc1nc2cc(-c3noc(-c4ccc(C)c(C)c4)n3)ccc2o1 |
| 1010 | Cc1c(-c2noc(-c3ccc4cc[nH]c4c3)n2)nnn1Cc1ccccc1 |
| 632 | CC(C)(C)NC(=O)CCc1ccc2nc(-c3ccccc3)[nH]c2c1 |
| 1070 | Cc1ccc(S(=O)(=O)N2CCc3c(c(-c4nnc(-c5ccccc5)o4)nn3C)C2)cc1Cl |
| 790 | COC(=O)c1ccc(Cn2cnc3c(Cl)ncnc32)cc1 |

| RP-LC retention time [s] | Structure (SMILES) |
| --- | --- |
| 571 | O=C(Nc1cc(F)ccc1F)N1CCc2nc[nH]c2C1 |
| 797 | Cc1ccccc1S(=O)(=O)Nc1ccc(C2(C(=O)NCC3CCCO3)CC2)cc1 (stereo not drawn) |
| 658 | Cc1nc2cc(N3CCCC(C(=O)Nc4ccc(N5CCOCC5)cc4)C3)cnc2nc1C (stereo not drawn) |
| 1040 | CCc1ccc(-c2csc(Nc3ccc(S(=O)(=O)Nc4nc(C)cc(C)n4)cc3)n2)cc1 |
| 837 | O=C(Nc1cccn2c(C3CCC3)nnc12)C1COc2ccccc2O1 (stereo not drawn) |
| 958 | O=C(Cn1ccc2ccc(N3CCOCC3)nc21)NCc1ccc(C(F)(F)F)cc1 |
| 560 | CCOc1ccc(C(O)CN2CCN(c3ccccn3)CC2)cc1 (stereo not drawn) |
| 814 | COc1cc(-c2ccc(Cl)cc2)nc2ccc(NC(=O)c3cccs3)cc12 |
| 564 | Fc1ccc(OCc2nc(C3CCCN3)no2)cc1 (stereo not drawn) |
| 647 | CCCC(=O)Nc1ccc2nc(N3CCN(c4cccc(OC)c4)CC3)cc(C(=O)O)c2c1 |
| 924 | O=c1c2c(CO)c(-c3ccccc3)nn2ccn1Cc1cc(F)ccc1F |
| 838 | CC(C)OCCCNC(=O)C1CCN(S(C)(=O)=O)c2cc(Cl)ccc2O1 (stereo not drawn) |
| 840 | COc1cccc(CNC(=O)Nc2cc3c(cc2Oc2ccccc2)n(C)c(=O)n3C)c1 |
| 636 | O=C(CSc1nnc(Cc2ccccc2)o1)N1CCOCC1 |
| 634 | O=C1CCN(C(=O)C2COc3ccccc3O2)CCOCCN1 (stereo not drawn) |
| 960 | Cc1cccc(-c2noc(Cn3ccn(Cc4ccc(Cl)cc4)c(=O)c3=O)n2)c1 |
| 741 | Cn1cnc(S(=O)(=O)N2CCC(C(=O)Nc3cccc(Br)c3)CC2)c1 |
| 1130 | Cc1ccc(-c2csc(NC(=O)CCc3nc(CSc4nc5ccccc5o4)no3)n2)cc1 |
| 814 | Cc1ccc(Sc2nccnc2N2CCC(C(=O)NCC3CCCO3)CC2)cc1 (stereo not drawn) |
| 649 | COc1ccc(CCC(=O)N2CCc3c(c(C(=O)N4CCCC(C(=O)NC5CC5)C4)nn3C)C2)cc1 (stereo not drawn) |

| Structure (SMILES) | RP-LC retention time [s] |
| --- | --- |
| CCn1ccc(C(=O)N2CCC3(CC2)c2nccn2-c2ccccc2CN3CC(C)C)n1 | 599 |
| COC(=O)c1ccc(NC(=O)N2[C@H]3CC[C@@H]2c2cnc(C)nc2C3)cc1 | 653 |
